Where two headings read alike, the source gives them in different places.

The experiment concerns the target T1, EhiCA (Entamoeba histolytica, UniProt C4LXK3).
T1 construct: gene EHI_073380; His-tag cleaved with thrombin; 21 kDa (21/25 kDa doublet); one Zn per chain; Zn ligands Cys50, His103, Cys106, dyad Asp52-Arg54; dimer and trimer seen on SDS-PAGE
T1 sequence (C4LXK3 1-188): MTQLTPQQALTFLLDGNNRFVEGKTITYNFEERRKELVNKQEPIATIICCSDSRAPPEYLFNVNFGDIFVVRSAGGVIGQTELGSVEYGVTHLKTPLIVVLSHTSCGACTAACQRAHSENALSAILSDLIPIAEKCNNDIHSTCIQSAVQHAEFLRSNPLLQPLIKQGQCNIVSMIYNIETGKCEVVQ
The experiment can be described thus: biochemical.

Broadly, the Ki is a measure of affinity in units of concentration, obtained from inhibition or displacement. With `F[B-](F)(F)F` [BF4^−], under “read-out: KI [mM] ^#”, the Ki was greater than 100 mM.
In the case of `Br` [Br^−], the inhibition constant (Ki) (read-out: KI [mM] ^#) is 36.8 mM.
Still for that read-out and setting: then `O=S(=O)(O)C(F)(F)F` [CF3SO3^−], with greater than 100 mM; and `N#CO` [CNO^−], with 0.77 mM.
On the same count and under the same terms, for `S=C(S)S` [CS3^2−] the value was 6 mM; for `[O-][Cl+3]([O-])([O-])O` [ClO4^−], greater than 100 mM.
Same read-out and setting: for `Cl` [Cl^−] the value was greater than 100 mM; for `CCN(CC)C(=S)S` [Et2NCS2^−], 0.51 mM.
`O=S(=O)(O)F` [FSO3^−]: under “read-out: KI [mM] ^#”, the Ki came to 0.086 mM.
The same measure, in the same setting: for `F` [F^−] the value was greater than 100 mM.
Same read-out and setting: then `NS(N)(=O)=O` [H2NSO2NH2], with 0.028 mM.
As for `NS(=O)(=O)O` [H2NSO3H], where the note is “read-out: KI [mM] ^#”, the inhibition constant Ki was greater than 100 mM.
The same measure, in the same setting: for `O=S(O)O` [HSO3^−] the value was 11.5 mM; for `S` [HS^−], 6.9 mM.
`I` [I^−] registered an inhibition constant Ki of 7.4 mM.
For the compound `O=S(=O)(O)NS(=O)(=O)O` [NH(SO3)2^2−], under “read-out: KI [mM] ^#”, the Ki turned out to be 2.2 mM.
Still for that read-out and setting: for `O=NO` [NO2^−] the value was 1.7 mM; for `O=[N+]([O-])O` [NO3^−], 3.6 mM.
On to `O=P(O)(O)OP(=O)(O)O` [P2O7^4−], for which the inhibitory constant (Ki) was greater than 100 mM.
Turning to `F[P-](F)(F)(F)(F)F` [PF6^−], the Ki (CO2 hydration, TRIS pH 8.3, 20 °C (methods: 25 °C), 0.1 M NaClO4, 15 min pre-incubation, as sodium salt, read-out: KI [mM] ^#) was greater than 100 mM.
As to `OB(O)c1ccccc1` [Ph-B(OH)2], the Ki (read-out: KI [mM] ^#) amounted to 0.047 mM.
In the case of `[O]=[Re](=[O])(=[O])[OH]` [ReO4^−], the Ki (read-out: KI [mM] ^#) turned out to be 7.1 mM.
For `[O]=[Ru](=[O])(=[O])[OH]` [RuO4^−], the Ki (read-out: KI [mM] ^#) was 7 mM.
Same read-out and setting: then `O=S(=O)(O)OOS(=O)(=O)O` [S2O8^2−], with 8.4 mM.
In turn, `N#CS` [SCN^−] showed a Ki of 7.9 mM.
Consider `O=S(=O)(O)O` [SO4^2−], for which the affinity, expressed as Ki, was 21.6 mM.
For `N#C[SeH]` [SeCN^−], the inhibition constant Ki (read-out: KI [mM] ^#) stood at 0.87 mM.
The same measure, in the same setting: for `O=[Se](=O)(O)O` [SeO4^2−] the value was 6 mM.
Take `O=[Te](=O)(O)O` [TeO4^2−]: the Ki (read-out: KI [mM] ^#) was 0.61 mM.
Same read-out and setting: then `[O]=[V]([OH])([OH])[O][V](=[O])([OH])[OH]` [V2O7^4−], with greater than 100 mM.

The record behind these values is article PMC6321543, “Cloning, Characterization and Anion Inhibition Studies of a β-Carbonic Anhydrase from the Pathogenic Protozoan Entamoeba histolytica” (Molecules, 2018).
